Results on one compound are retold here after ChEMBL document CHEMBL1150605, “Isolation of a new mycalolide from the marine sponge Mycale izuensis” (J Nat Prod, 2002).

In this test the test system is HeLa. As to the kind of experiment: Cytotoxicity against human HeLa cells. The format is functional, cell-based.

The structures appear in SMILES notation. In brackets after ≈: the same amount, converted by molar mass.

As usually defined, the IC50 is the point on the concentration scale where inhibition reaches its midpoint. High values mean lower potency, low ones higher potency. As to `CO[C@H]1C/C=C/c2nc(co2)-c2nc(co2)-c2nc(co2)[C@@H](OC)[C@@H](C)C(=O)/C=C/C[C@H](O)CC(=O)O[C@@H](C[C@H](OC)[C@@H](C)CC[C@@H](O)[C@@H](C)[C@H](O)[C@H](C)/C=C/N(C)C=O)[C@@H]1C` [30,32-DIHYDROXYMYCALOLIDE A], 2.6 ng/mL (≈ 2.99 nM) corresponded to half-maximal inhibition (IC50).
